Laboratory results taken from patent EP0172581B1, “Disaccharide derivatives” (DAIICHI SEIYAKU CO., LTD., priority 1984, dated 1986).
Where two headings read alike, the source gives them in different places.

What was measured:
[1] = system: isolated murine lymphocytes (splenocytes); experiment: Test on mitogenicity ([³H]-labeled thymidine uptake); format: cell-based, BALB/c nu/nu mice; details: T/C, 48 hours incubation
Experimental: Spleen of BALB/c nu/nu mice (male; 8-week old) was minced, and lymphocytes collected from the minced spleen were incubated with graded doses of test compounds in RPMI 1640 medium without fetal bovine serum at 37°C at a concentration of 1 x 10⁵ to 1 x 10⁶ lymphocytes per mℓ for 48 hours. Twenty-four hours before the completion of the incubation, [³H]-labeled thymidine (manufactured by New England Nuclear) was added to the culture. After the completion of the incubation, cells were collected on glass micro-fiber paper and dried, and the radioactivity of [³H]-labeled thymidine incorporated into the cells was measured. The ratio of thymidine uptake in the test culture to which the test compound had been added to that in the respective control culture was determined as a stimulation index. The higher the stimulation index, the higher the mitogenicity.

Japanese white rabbits = format: in vivo; details: for Number of Necrosed Animals/Number of Tested Animals: 100 µg LPS intravenously 20 hours later
Experimental: The local Shwartzman reaction test (Test I) is examined to determine the phenomenon of necrosis, at the site where a test compound was injected, induced by intravenous injection of lipopolysaccharide (hereinafter referred to as LPS) after 20 hours from intracutaneous injection of the test compound to test animals, preferably in rabbits.
The test on Shwartzman reaction specific to endotoxin was carried out as follows using Japanese white rabbits (female, weighing around 3 kg). That is, Japanese domestic white rabbits were intracutaneously injected with the test compound. Twenty hours later, 100 µg of LPS extracted from Salmonella minnesota R595, Re-mutant was intravenously injected to each rabbit. The Shwartzman reaction-induction activity was expressed in terms of number of animals that suffered from hemorrhagic necrosis at the site that had been prepared by intracutaneous injection of the test compound.

[2] = system: Japanese domestic white rabbits; experiment: Test II - test on pyrogenicity (Japanese Pharmacopoeia); format: in vivo; details: for Number of Febrile Animals/Number of Tested Animals: 0.1 µg/kg intravenously, febrile = temperature increase of 0.6°C or more
Experimental: The pyrogenicity of the compounds of this invention was determined in terms of body temperature increase in rabbits after intravenous injection of the test compound in accordance with the test method of pyrogenicity defined in Japanese Pharmacopoeia. That is, the rectal temperatures of Japanese domestic white rabbits (body weight: 2 to 2.5 kg) were measured 3 times at one-hour intervals. When the temperature in the second and third measurements were substantially equal, the third temperature was taken as a reference temperature. Within 15 minutes after the third measurement, the test compound dissolved in pyrogen-free distilled water was injected in the ear vein, and the rectal temperature was measured 3 times at one-hour intervals after injection. A difference between the reference temperature and the maximum temperature was taken as an increase of body temperature, and the pyrogenicity of the test compound was expressed by the number of febrile animals showing a temperature increase of 0.6°C or more.

[3] = system: clotting enzyme of Tachypleus tridentatus (horseshoe crab) amoebocytes; experiment: Test III - Limulus test (toxicolor test); format: biochemical; details: activity of 1 mg test compound converted to amount of LPS from E. coli 0111:B4
Text: Also, the compounds of this invention are very useful as a standard reagent for determination of endotoxin in the samples to be tested, and their activity has been confirmed by the local Shwartzman reaction test (Test I in Test Example 3), the pyrogenicity test (Test II in Test Example 3), and the activation of clotting enzyme of Tachypleus tridentatus (horseshoe crab) amoebocytes, i.e., Limulus test (Test III in Test Example 3).
The pyrogenicity of the compounds of this invention was also determined by Limulus test (toxicolor test). That is, the test compound was dissolved in a pyrogen-free 0.1% (vol/vol) triethylamine aqueous solution to a concentration of 2 mg/mℓ and diluted with pyrogen-free distilled water to a concentration of 4 X 10⁻¹ mg/mℓ. Subsequently, dilute aqueous solutions having concentrations of from 4 X 10⁻¹ mg/mℓ to 4 × 10⁻¹⁰ mg/mℓ were prepared by serial 10-fold dilution. […] Thereafter, 0.5 mℓ of sodium nitrite was added to the culture, and after stirring 0.1 mℓ each of ammonium sulfamate and N-(1-naphthyl)-ethylenediamine were added thereto to develop a color, and absorbance at a wavelength of 545 nm was determined. […]

Row | Structure (SMILES) | Stimulation Index ±S.E. ([1]; 0.01 µg/mℓ test compound added) | Stimulation Index ±S.E. ([1]; 0.1 µg/mℓ test compound added) | Stimulation Index ±S.E. ([1]; 1 µg/mℓ test compound added) | Number of Necrosed Animals/Number of Tested Animals (Japanese white rabbits; 20 µg/site intracutaneously) | Number of Febrile Animals/Number of Tested Animals [2] | Converted LPS Amount [3] | Number of Necrosed Animals/Number of Tested Animals (Japanese white rabbits; 80 µg/site intracutaneously) | reaction in Test I (local Shwartzman reaction) (Japanese white rabbits; summary in words) | reaction in Test II (pyrogenicity) ([2]; summary in words)
1 | CCCCCCCCCCCCCC(=O)O[C@H](CCCCCCCCCCC)CC(=O)O[C@@H]1[C@@H](NC(=O)C[C@@H](CCCCCCCCCCC)OC(=O)CCCCCCCCCCC)[C@H](OC[C@H]2O[C@H](OP(=O)(O)O)[C@H](NC(=O)C[C@H](O)CCCCCCCCCCC)[C@@H](OC(=O)C[C@H](O)CCCCCCCCCCC)[C@@H]2O)O[C@H](CO)[C@H]1OP(=O)(O)O [Compound of Present Invention, 6-O-{2-Deoxy-2-[(R)-3-dodecanoyloxytetradecanoylamino]-3-O-[(R)-3-tetradecanoyloxytetradecanoyl]-4-O-phosphono-β-D-glucopyranosyl}-2-deoxy-2-[(R)-3-hydroxytetradecanoylamino]-3-O-[(R)-3-hydroxytetradecanoyl]-1-O-phosphono-α-D-glucopyranose] | 4.06 ± 0.35 | 9.05 ± 0.70 | 11.76 ± 0.13 | 2/3 | 3/4 | 2.38 mg |  |  | 
2 | CCCCCCCCCCC[C@@H](O)CC(=O)N[C@H]1[C@H](OC[C@H]2O[C@H](OP(=O)(O)O)[C@H](NC(=O)C[C@H](O)CCCCCCCCCCC)[C@@H](OC(=O)C[C@H](O)CCCCCCCCCCC)[C@@H]2O)O[C@H](CO)[C@@H](OP(=O)(O)O)[C@@H]1OC(=O)C[C@H](O)CCCCCCCCCCC [Control Compound 1, 6-O-{2-Deoxy-2-[(R)-3-hydroxytetradecanoylamino]-3-O-[(R)-3-hydroxytetradecanoyl]-4-O-phosphono-β-D-glucopyranosyl}-2-deoxy-2-[(R)-3-hydroxytetradecanoylamino]-3-O-[(R)-3-hydroxytetradecanoyl]-1-O-phosphono-α-D-glucopyranose] |  |  |  |  | 0/3 | 1.34 mg | 0/3 | negative | negative
